Measured values as given in patent US7335248B2, “Marine antifouling coating compositions” (Novus International, Inc., priority 2005, dated 2008).

Legend:
[1] = test system: barnacles; experiment: Six month static immersion fouling test of painted PVC panels (open ocean, Tuticorin, India); type: in vivo; conditions: for Total barnacle Count / Mean ± SD (barnacle count): 5% (w/w); for Total barnacle Count: both duplicate panels; for Mean ± SD (barnacle count): four panel surfaces
Source text: The reported data were extracted from the raw data as described below, and are shown as total barnacle counts for both duplicate panels of each test formulation. In Table 4, the mean and standard deviation of the data derived from the four panels' surfaces of the duplicate panels for each group. The barnacle counts along the edges were not considered in this evaluation because of the expected uneven coating and inherent tendency of barnacles to first attach to edges. In addition, coatings along the edges can be easily damaged or uneven. Thus, for evaluation purposes only the coated surfaces of the flat areas were considered for this evaluation.
Zinc Omadine was used as the positive control for this series of tests. It is important to note here that fouling is continuous throughout the year at the Tuticorin, India site and the degree of settlement is generally the same for the same coating system.

[2] = test system: barnacles; experiment: Nine month static immersion testing in the Indian Ocean; type: in vivo; conditions: 9-month static immersion
Source text: Table 5 summarizes the anti-fouling data from the nine-month immersion test, performed as described above for the six month tests.

| Compound | Total barnacle Count ([1]; CUAB coating, 6 months) | Mean ± SD (barnacle count) ([1]; CUAB coating, 6 months) | Total barnacle Count ([1]; CUSP coating, 6 months) | Mean ± SD (barnacle count) ([1]; CUSP coating, 6 months) | Total barnacle Count ([1]; MFAB coating, 6 months) | Mean ± SD (barnacle count) ([1]; MFAB coating, 6 months) | barnacle coverage of panels ([1]; MFSP coating, 5%, 6 months) | efficacy / barnacle settlement ([1]; copper self-polishing and metal-free ablative coatings, six months of exposure) | LS MEAN BARNACLES ([2]; CUSP PAINT) | LS MEAN BARNACLES ([2]; MFAB PAINT) |
| --- | --- | --- | --- | --- | --- | --- | --- | --- | --- | --- |
| [O-][n+]1ccccc1[S-].[O-][n+]1ccccc1[S-].[Zn+2] [Zn Omadine, zinc salt of pyrithione, reference compound] | 167 | 41.8 ± 23.3 | 33 | 8.3 ± 4.0 | 113 | 28 ± 15.0 | fully covered by barnacles | substantial settlement |  |  |
| CSCC[C@H](N)C(=O)O.[Zn] [Zn-Methionine, zinc methionine] |  |  |  |  |  |  |  |  | 0.5 | 8 |
